Here are results for seven compounds from ChEMBL document CHEMBL1148837, “Development of new pyrrolopyrimidine-based inhibitors of Janus kinase 3 (JAK3)” (Bioorg Med Chem Lett, 2007).

SMILES strings stand for the structures.

Experiment [1] concerns TF-1. Description: cells. It is filed as functional, cell-based. To be noted: Homo sapiens.
Description: Inhibition of IL3-induced TF1 cell proliferation
The subject of experiment [2] is TF-1. Description: cells. To be noted: Homo sapiens. It is filed as functional, cell-based. This is another data set of the same source.
Description: Inhibition of IL4-induced TF1 cell proliferation

As to `COC[C@H](C)Nc1nc(-n2cnc3ccncc32)nc2c1cc(C(=O)N1CCN(C)CC1)n2C`, the IC50 (in general, the concentration needed to halve the response being measured) in the experiment with TF-1 [1] came out at 4790 nM; with TF-1 [2], 1160 nM.

As for `C[C@H](Nc1nc(-n2cnc3ccncc32)nc2c1cc(C(=O)N1CCOCC1)n2C)c1ccccc1`, the IC50 turned out to be 1400 nM in the experiment on TF-1 [1] and 670 nM in the experiment on TF-1 [2].

In the case of `CONC(=O)c1cc2c(N[C@@H](C)c3ccccc3)nc(-n3cnc4ccncc43)nc2n1C`, the IC50 stood at 740 nM with TF-1 [1] and 450 nM in the experiment with TF-1 [2].

With `C[C@H](Nc1nc(-n2cnc3ccncc32)nc2c1cc(C(=O)NCCCN1CCOCC1)n2C)c1ccccc1`, the IC50 in the experiment on TF-1 [1] came out at 2790 nM; in the experiment on TF-1 [2], 910 nM.

Take `COc1ccc(Cl)c(Nc2nc(-n3cnc4ccncc43)nc3c2cc(C(=O)N2CCN(C)CC2)n3C)c1`: the IC50 with TF-1 [1] was 2200 nM; with TF-1 [2], 490 nM.

As to `C[C@H](Nc1nc(-n2cnc3ccncc32)nc2c1cc(C(=O)N1CCN(C)CC1)n2C)c1ccccc1`, the IC50 was determined as 90 nM with TF-1 [1] and 80 nM in the experiment on TF-1 [2].

Turning to `C[C@H](Nc1nc(-n2cnc3ccncc32)nc2c1cc(C(=O)NCCN(C)C)n2C)c1ccccc1`, the IC50 in the experiment with TF-1 [1] was 1950 nM; with TF-1 [2] it was 460 nM.
